In US6515025B2, “Use of ethynyl alanine amino diol compounds to inhibit enzymatic conversion of angiotensinogen to angiotensin I” (Pharmacia Corporation, priority 1991, dated 2003):
Several values for one entry are separate records, joined by “and”; a condition that tells them apart may be missing. Equal entries are not always repeated. Where two headings read alike, the source gives them in different places.

Legend:
[1] = Oral bioavailability studies in dogs (plasma concentration by bioassay); format: in vivo; conditions: dog, plasma
Protocol: The bioavailability in marmosets and dogs was determined by sampling the blood via the femoral vein at various time points after administering the renin inhibitor compounds of the invention in polyethylene glycol 400 at an intragastric dose of 10 mg/kg or at an intravenous dose of 1 mg/kg. Compound concentration in plasma was determined using the bioassay technique described below. The percent bioavailability was calculated by dividing the area under the concentration-vs.-time curve obtained from the intragastric experiment by the area under the concentration-vs.-time curve obtained from the intravenous experiment (adjusting for different doses), and multiplying the result by 100%. The bioavailibility of Example 1 compound is 27% in marmosets and 33% in dogs.
Renin inhibitor plasma concentrations were determined by a bioassay. The plasma samples were extracted with acetonitrile and the extract was evaporated to dryness under nitrogen. Residue was dissolved in 4% bovine serum albumin containing 0.9% NaCl and 5% EDTA. The dissolved residue (0.1 ml) was incubated with a reaction mixture containing human plasma (0.12 ml), 5% phenylmethysulfonylfluoride (1.2 ul), 10% neomycin (2.4 ul), 0.5 M TES buffer (pH 7.4, 24 ul), and 0.6 mU/ml recombinant human renin (1000 U/mg, 50 ul) at 37° C. for 90 minutes. The renin activity was determined by a standard angiotensin I radioimmunoassay (New England Nuclear Corp.). The amount of test compound in the plasma was determined by comparing the extent of inhibition of renin activity with that produced by a known amount of test compound added to plasma and analyzed above.

[2] = tested on: Plasma Renin Activity (PRA); test: Marmoset plasma renin activity (PRA) reduction on oral administration; format: in vivo, Marmoset monkeys (Callithrix jacchus); conditions: 0.1 MPK, IG; for inhibition at 0.1 mg/kg: Primates, po
Protocol: The oral activity of renin inhibitor compounds was determined in vivo in Marmoset monkeys using the following procedure. Common Marmoset monkeys (Callithrix jacchus, Charles River, both sexes, body weight 300-400 g) were placed on a modified high-protein low-sodium diet (Purina, St. Louis, Mo.) for 1 week. About 24 hours prior to the administration of test compound, Lasix (5 mg/kg, im) was given. On the day of the test, the animal was anesthetized with isoflurane, body weight recorded, and a baseline blood sample taken. Then, test compound was given intragastrically and blood samples were taken in K-EDTA for plasma renin activity at appropriate time intervals. The PRA was determined by using the protocol outlined below. Results are expressed in terms of PRA at various time intervals both before and after compound administrations (“Pre” means pretreatment levels before compound administrations). Also included is percent inhibition (% INH from pretreatment levels).
I. Angiotensin I Generation
25 ml of the above reaction mixtures, in duplicate, were incubated at 37° C. or 0° C. for 2 hours.
II. Determination of Angiotensin I Concentrations
Angiotensin I (AI) concentrations were determined by radioimmunoassays with a commercial kit from NEN Co.
III. Calculation of Plasma Renin Activity
PRA (ng AI/ml/hr)=(AI at 37°−AI at 0°)/2 hr.

[3] = iv, 1 mg/kg, IV at 1 mg/kg, individual animals, read-out: Estimated Plasma Concentration
[4] = iv, 1 mg/kg, IV at 1 mg/kg, read-out: Estimated Plasma Concentration, Mean ± SE
[5] = oral, 10 mg/kg, IG at 10 mg/kg, read-out: Estimated Plasma Concentration, Mean ± SE
[6] = oral, 10 mg/kg, IG at 10 mg/kg, individual animals, read-out: Estimated Plasma Concentration

- concentration at 10 min [1, 3]: 299 ng/mL
- concentration at 10 min [1, 4]: 275 ± 28.4 ng/mL
- concentration at 15 min [1, 3]: 218 ng/mL
- concentration at 15 min [1, 4]: 170 ± 24.1 ng/mL
- concentration at 30 min [1, 3]: 145 ng/mL
- concentration at 30 min [1, 4]: 123 ± 12.1 ng/mL
- concentration at 1 h [1, 3]: 70.4 ng/mL
- concentration at 1 h [1, 4]: 62.7 ± 6.4 ng/mL
- concentration at 2 h [1, 3]: 48.8 ng/mL
- concentration at 2 h [1, 4]: 58.2 ± 6.2 ng/mL
- concentration at 4 h [1, 3]: 18.6 ng/mL
- concentration at 4 h [1, 4]: 21.9 ± 1.6 ng/mL
- concentration at 6 h [1, 3]: 10.1 ng/mL
- concentration at 6 h [1, 4]: 11.3 ± 1.1 ng/mL
- concentration at 8 h [1, 3]: 6.4 ng/mL
- concentration at 8 h [1, 4]: 5.8 ± 0.5 ng/mL
- concentration at 24 h [1, 3]: 2.5 ng/mL
- concentration at 24 h [1, 4]: 1.8 ± 0.4 ng/mL
- concentration at 15 min [1, 5]: 128 ± 77.2 ng/mL
- concentration at 30 min [1, 5]: 564 ± 158 ng/mL
- concentration at 1 h [1, 6]: 678 ng/mL
- concentration at 1 h [1, 5]: 799 ± 60.5 ng/mL
- concentration at 2 h [1, 6]: 599 ng/mL
- concentration at 2 h [1, 5]: 502 ± 75.8 ng/mL
- concentration at 4 h [1, 6]: 123 ng/mL
- concentration at 4 h [1, 5]: 110 ± 20.9 ng/mL
- concentration at 6 h [1, 6]: 66.9 ng/mL
- concentration at 6 h [1, 5]: 62.1 ± 7.7 ng/mL
- concentration at 8 h [1, 6]: 33.5 ng/mL
- concentration at 8 h [1, 5]: 34.8 ± 5.8 ng/mL
- concentration at 24 h [1, 6]: 6.2 ng/mL
- concentration at 24 h [1, 5]: 7.5 ± 0.7 ng/mL
- bioavailability ([1]; oral, dogs, IG 10 mg/kg vs IV 1 mg/kg): 33%
- Vd ([1]; read-out: Vd, Mean ± SE): 9.5 ± 1 L/kg
- half-life ([1]; read-out: t1/2, Mean ± SE (converted)): 4.7 ± 0.3 h
SMILES: C#CC[C@H](NC(=O)C(CC(=O)N(C)CCN(C)C)Cc1ccccc1)C(=O)NC(CC1CCCCC1)[C@@H](O)C(O)CC(C)C (relative stereo) [Example 1, N1-[1R*-[[[1S,1R*-(cyclohexylmethyl)-2S*,3R*-dihydroxy-5-methylhexyl]amino]carbonyl]-3-butynyl]-N4-[2-(dimethylamino)ethyl]-N4-methyl-2S*-(phenylmethyl)butanediamide]
- % INH (from pretreatment PRA) ([2]; 60 min, individual monkeys): 76.6% and 95.6%
- PRA ([2]; 60 min from dosing, individual monkeys): 2.8 ngAI/ml/hr and 16.4 ngAI/ml/hr and 4 ngAI/ml/hr
- % INH (from pretreatment PRA) ([2]; 120 min, individual monkeys): 91.1% and 71.5% and 94.2%
- PRA ([2]; 120 min from dosing, individual monkeys): 4.1 ngAI/ml/hr and 20 ngAI/ml/hr and 5.2 ngAI/ml/hr
- % INH (from pretreatment PRA) ([2]; 240 min, individual monkeys): 89.8% and 67.8% and 45%
- PRA ([2]; 240 min from dosing, individual monkeys): 9.2 ngAI/ml/hr and 14.8 ngAI/ml/hr and 38.7 ngAI/ml/hr
- PRA ([2]; Pre (pretreatment level), individual monkeys): 45.8 ngAI/ml/hr and 70.2 ngAI/ml/hr and 90.1 ngAI/ml/hr
- inhibition at 0.1 mg/kg ([2]; 60 min, individual monkeys, read-out: % INH (from pretreatment PRA)): 93.8%
- inhibition at 0.1 mg/kg ([2]; 1 h, 60 min, mean of monkeys A-C, read-out: MEAN % INH): 88.7 ± 6%
- inhibition at 0.1 mg/kg ([2]; 2 h, 120 min, mean of monkeys A-C, read-out: MEAN % INH): 85.6 ± 7%
- inhibition at 0.1 mg/kg ([2]; 4 h, 240 min, mean of monkeys A-C, read-out: MEAN % INH): 67.5 ± 13%
